Experimental data as given in patent US20250275537A1, “CARBOXAMIDE APYRASE INHIBITORS” (Texas Crop Science, Inc., priority 2024, published 2025).

Experiments:
apyrase = assay: Apyrase inhibition assay (Method 1); format: biochemical; settings: inhibitor conc at 1 mM stock, 10 μl per well; 1 hr room temperature; rounded average of at least two assay results
Protocol: Apyrase inhibitors useful as enhancers of pesticidal activity are assessed using an in vitro assay. The method of Windsor, Bio Techniques 33:1024-1030 (November 2002) was used as follows
96 well plates were used for the assay: (Greiner bio-one: REF-655901-96 well, PS, F-bottom, Clear, Non-binding)
• Reaction Buffer: 60 mM Hepes, 3 mM MgCl2, 3 mM CaCl2 and 3 mM ATP (pH 6.5) • Development Buffer A: 2% aqueous ammonium molybdate • Development Buffer B: 11% ascorbic acid in 37.5% TCA in water • Stop buffer C: 2% trisodium citrate in 2% acetic acid solution in water • Add 100 μl of reaction buffer to each well. • Add 10 μl of DMSO (control) or inhibitor/compound or compounds such as N1915 or orthovanadate to each well. (use inhibitor conc at 1 mM; orthovanadate at 2 mM and N1915 at 1 mM) • Add 10 μl of apyrase (concentration based on optimization —Dilute 1 U/μl enzyme to different concentrations such as 0.1U, 0.05U, 0.0025, 0.001U, 0.0005U—to find a good range) • Incubate plate at room temperature for 1 hr • Mix development buffer A and B in the ratio of 1:1.5 (just before use). • Add 50 ul of A:B mix in each well (incubate for 2 mins) • Add 50 ul of C in each well • Measure/Read Absorbance of plate @630 nm
Inhibitory data for the apyrase assay described above are provided for selected compounds in Table 3. In Table 3, D indicates inhibition of <10%.
With reference to Table 3, percent inhibition of apyrase is reported as the rounded average of at least two assay results.

[1] = system: Brown Rust (Puccinia recondita) on wheat; assay: Greenhouse crop test: Brown Rust on wheat in combination with commercial fungicides (Method 3); format: in vivo; settings: evaluated at fourteen days
Protocol: In this method, exemplary compounds were evaluated for their ability to control Brown Rust (Puccinia recondita) on wheat, in a controlled greenhouse environment in combination with one of four fungicides, Amistar, Imtrex, Proline or Balaya. In these studies, JB Diego wheat plants were used. Seeds were sown in 9 cm diameter pots to a depth of 1 to 2 cm using Petersfield potting compost (75% medium grade peat, 12% screened sterilized loam, 3% medium grade vermiculite, 10% grit (5 mm screened, lime free), 1.5 kg PG mix per m3, lime to pH5.5-6.0 and wetting agent (Vitax Ultrawet 200 ml per m3) and germinated/grown at 23 C under a 16 h day/8 h night light regime. Plants were treated two to three weeks after sowing when they were at the BBCH 11 growth stage (first pair of true leaves (unifoliate) unfolded). Plants were inoculated with the Puccinia triticina (Brown rust on wheat plants) 24 hours after treatment. A track sprayer was used to treat the plants with the mixture of commercial fungicide and test compound using a water volume of 200 L/ha. […] Each plant was evaluated at fourteen days (once the disease symptoms were fully expressed) for % control of the disease. […] Also, each commercial fungicide was tested on its own as a part of each treatment, this being benchmark against which the experimental compounds were evaluated. […]

[2] = system: Amaranthus retroflexus (pigweed); assay: Enhancement of herbicide activity: pre-emergence Amaranthus kill with metribuzin (Method 4); format: in vivo; settings: enhancer at 100 g/ha; for enhancement of metribuzin herbicidal activity: at seven and fourteen days
Excerpt: Small amounts of acetone were used to aid solubility. The pots were watered immediately after sowing and treatment and then allowed to stand in a glasshouse. Assessment of kill was made seven and fourteen days after treatment. The test included four replicates for each treatment and the control.

[3] = system: strain of Zymoseptoria tritici with a reduced susceptibility to strobilurin fungicides; assay: In vitro assessment of combination activity with fungicides (Method 2), Z. tritici strobilurin-reduced-susceptibility strain; format: cell-based; settings: any fungicide (azoxystrobin, fluxapyroxad, desthio prothioconazole)
Protocol: (§1) Selected compounds are assessed in combination with fungicides against a range of commercially important plant pathogenic fungi.
(§2) The test is conducted as follows. A fungicide is applied to a fungal plant pathogen at a rate slightly below that at which it gave any control, in combination with a suitable dose of the test compound. The test compound is recorded as active if control of the pathogen is observed.
(§3) In more detail, the test is conducted as follows. For each combination of fungicide, pathogen and test compound, the following wells are used. Well 1 contains a fungal pathogen growing on agar, and a fungicide at a rate just below that at which it gives any control of the pathogen. Well 2 is the same as Well 1, except that the test compound is also added at Rate 1. Well 3 is the same as Well 2, except that the test compound is added at Rate 2, where Rate 2 was higher than Rate 1. Finally, as a benchmark. Well 4 is the same as Well 1, except that it contains the fungicide at a higher rate, at which it gives partial control of the pathogen. Each of the Wells 1 to 4 are run in duplicate, giving a total of 8 wells for each combination of fungicide, pathogen and test compound. For each well, after a suitable period of incubation, a visual assessment of the % control of the pathogen by the fungicide is made. […]

Microdochium nivale = assay: In vitro assessment of combination activity with fungicides (Method 2), Microdochium nivale; format: cell-based; settings: in combination with azoxystrobin; visual % control on agar
Protocol: as §1, §2, §3

[4] = system: strain of Zymoseptoria tritici with a reduced susceptibility to SDHI fungicides; assay: In vitro assessment of combination activity with fungicides (Method 2), Z. tritici SDHI-reduced-susceptibility strain; format: cell-based; settings: any fungicide (azoxystrobin, fluxapyroxad, desthio prothioconazole)
Protocol: as §1, §2, §3

[5] = Assessed 7 DAT, metribuzin rate 50 g/ha
[6] = Assessed 7 DAT, metribuzin rate 100 g/ha
[7] = Assessed 7 DAT, metribuzin rate 200 g/ha
[8] = Assessed 14 DAT, metribuzin rate 50 g/ha
[9] = Assessed 14 DAT, metribuzin rate 100 g/ha
[10] = Assessed 14 DAT, metribuzin rate 200 g/ha

Row | Compound | % Inhibition of Apyrase (apyrase) | additional Brown Rust control in combination with Balaya over Balaya alone ([1]; Balaya 0.25 L/ha) | additional Brown Rust disease control in combination with Amistar over Amistar alone ([1]; Amistar 0.04 L/ha) | Pre-Emergence Amaranthus Kill Percentage [2, 5] | Pre-Emergence Amaranthus Kill Percentage [2, 6] | Pre-Emergence Amaranthus Kill Percentage [2, 7] | Pre-Emergence Amaranthus Kill Percentage [2, 8] | Pre-Emergence Amaranthus Kill Percentage [2, 9] | Pre-Emergence Amaranthus Kill Percentage [2, 10] | enhancement of metribuzin herbicidal activity [2] | enhancement of fungicide activity (combination activity) [3] | enhancement of fungicide activity (combination activity) (Microdochium nivale) | enhancement of fungicide activity (combination activity) [4]
1 | O=C(Nc1ccccc1)c1ccc(C(=O)Nc2ccccc2)cc1 [Compound I-3, N^1,N^4-diphenylterephthalamide] | A (A indicates inhibition above 30%) | measurable additional Brown Rust control |  |  |  |  |  |  |  |  |  |  | 
2 | O=C(c1ccc(C(=O)N2CCc3ccccc32)cc1)N1CCc2ccccc21 [Compound I-66, 1,4-phenylenebis(indolin-1-ylmethanone)] | A (A indicates inhibition above 30%) |  | greater than 20% |  |  |  |  |  |  |  |  |  | 
3 | O=C(Nc1ccccc1Cl)c1ccccc1C(=O)Nc1ccccc1Cl [Compound I-14, N^1,N^2-bis(2-chloropheny)phthalamide] | A (A indicates inhibition above 30%) |  |  | 21.3% | 93.9% | 98.0% | 32.7% | 94.0% | 100.0% | significant enhancement |  |  | 
4 | O=C(Nc1cccc([N+](=O)[O-])c1)c1cccc(S(=O)(=O)Nc2ccc(Br)cc2)c1 [Roux Compound 13] |  |  |  |  |  |  |  |  |  |  | failing to enhance activity of any fungicide | enhancing the activity of azoxystrobin | failing to enhance activity of any fungicide
5 | COCc1cc(F)ccc1NC(=O)c1cccc(C(=O)Nc2ccc(F)cc2COC)c1 [Compound I-63, N^1,N^3-bis(4-fluoro-2-(methoxymethyl)phenyl)isophthalamide] | A (A indicates inhibition above 30%) |  |  | 2.0% | 34.0% | 96.3% | 4.1% | 34.0% | 98.2% | significant enhancement |  |  | 
